# In patent US12697748B2, “Wood treatment compositions having antimicrobial properties” (Société en Commandite Prolam, priority 2022, dated 2026):
# Columns and labels:
# Assay type in all cases: cell-based
# [1] = system: Escherichia coli ATCC 11229; test: Growth inhibition zone of treated wood pieces on TSA nutrient gel; settings: 24 h at 36° C., listed as Negative control
# Method: (§1) Cubic pieces of Maplewood of about 3 mm of thickness with a surface of about 1 cm^2 were provided. For Sample A, the pieces were heated on a heating plate at 230° C. for about 45 seconds, and dipped into the tannin solution for about 25 seconds, again heated on the heating plate for about 45 seconds and dipped in paraffin at 65° C. for about 25 seconds. For Sample B, the pieces were heated on a heating plate for about 45 seconds, and dipped into the tannin solution for about 25 seconds. The impregnation rate was calculated to be around 645 g/m^2 (60 g/pi^2).
# (§2) The growth inhibition for Escherichia coli ATCC 11229 and Staphylococcus aureus ATCC 6538 was first determined. A culture of each microorganism was spread at the surface of Tryptic Soy agar (TSA) nutrient gel. Treated wood was cut into cubic pieces of about 3 mm of thickness with a surface of about 1 cm^2, as prepared above. Each piece was deposited on the nutrient gel, treated face down, contacting the gel, and using two pieces for each microorganism. The petri dishes containing the nutrient gel were closed and incubated for 24 h at 36° C. Sterile filters moistened with demineralized water and with a mercury chloride 0.018 mol/L solution were used and tested as negative and positive controls, respectively. After the incubation period, the growth inhibition zone was measured, and the incubation pursued for three (3) additional days to evaluate the growth under the wooden cubes after the prolonged incubation.
# (§3) Cubic pieces of Maplewood of about 1 cm of thickness with a surface of about […] were provided. For Samples 1 and 2, the pieces were heated on a heating plate at 230° C. for about 45 seconds, and dipped into the tannin solution for about 25 seconds, again heated on the heating plate for about 45 seconds and dipped in paraffin at 65° C. for about 25 seconds. For Samples 4 and 5, the pieces were heated on a heating plate for about 45 seconds, and dipped into the tannin solution for about 25 seconds. The impregnation rate was calculated to be around 301 g/m^2 (28 g/pi^2). […]
# [2] = system: Staphylococcus aureus ATCC 6538; test: as above; settings: 24 h at 36° C.
# Method: as §1, §2, §3
# [3] = system: Escherichia coli ATCC 11229; test: Qualitative antibacterial effect, inhibition zone after 48 h (Example 6); settings: filter (diameter 10 mm)
# Method: Cubic pieces of Maplewood of about 1 cm of thickness with a surface of about […] were provided. For Sample Y, the pieces were heated on a heating plate at 230° C. for about 45 seconds, and dipped into the tannin solution for about 25 seconds, again heated on the heating plate for about 45 seconds and dipped in paraffin at 65° C. for about 25 seconds. For Sample X, the pieces were heated on a heating plate for about 45 seconds, and dipped into the tannin solution for about 25 seconds.
# After the above impregnation, manual vaporization of the Tanac Weibull™ solution was also conducted. Samples X and Y were sprayed five times each, with 24 h between each spray.
# The growth inhibition for Escherichia coli ATCC 11229 was determined. A culture of the microorganism was spread at the surface of Tryptic Soy agar (TSA) nutrient gel. Treated wood cubic pieces of about 3 mm of thickness with a surface of about 1 cm^2, as prepared above. The wooden pieces of Sample X (duplicated) were then rehumidified with water, Sample Y was not rehumidified and two Samples Z (no treated) were used: as is and rehumidified. Each piece was deposited on the nutrient gel, treated face down, contacting the gel. […] After the incubation period, the growth inhibition zone was measured and the incubation pursued at 48 h to evaluate the growth under the wooden cubes after the prolonged incubation.
compound,measurement,setting,value
"[Cl][Hg][Cl] [Positive control, mercury chloride]",Diameter of the inhibition zone,[1],23 mm
same,Diameter of the inhibition zone,[2],32 mm
same,Diameter of the inhibition zone,[2]; listed as Negative control,25 mm
same,Diameter of the inhibition zone after 48 h,[3],22 mm
